Target: T1, vesicular monoamine transporter 2 (VMAT2) (Homo sapiens, UniProt Q05940)
T1 construct: gene SLC18A2; human VMAT2 stably expressed in HEK293 cells (HEK-hVMAT2), pcDNA3.1
Assay: inhibition of vesicular 3H-dopamine uptake in HEK-hVMAT2 cell fractions
Type: biochemical

T1 sequence (Q05940 whole entry): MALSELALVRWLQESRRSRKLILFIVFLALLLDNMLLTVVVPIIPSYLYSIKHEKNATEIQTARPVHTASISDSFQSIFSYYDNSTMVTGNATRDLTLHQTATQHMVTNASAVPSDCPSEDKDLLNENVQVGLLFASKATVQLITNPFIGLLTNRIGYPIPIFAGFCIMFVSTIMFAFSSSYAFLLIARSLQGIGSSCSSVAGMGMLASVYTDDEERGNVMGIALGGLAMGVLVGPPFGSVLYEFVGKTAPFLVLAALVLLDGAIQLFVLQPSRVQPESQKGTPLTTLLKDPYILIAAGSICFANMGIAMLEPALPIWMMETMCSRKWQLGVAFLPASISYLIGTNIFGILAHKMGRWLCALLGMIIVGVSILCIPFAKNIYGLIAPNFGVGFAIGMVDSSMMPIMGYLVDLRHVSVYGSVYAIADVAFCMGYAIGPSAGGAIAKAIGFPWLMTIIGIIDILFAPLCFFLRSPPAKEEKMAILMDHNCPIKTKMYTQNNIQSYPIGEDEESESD

O=S(=O)(O)C(F)(F)C(F)(F)C(F)(F)C(F)(F)C(F)(F)C(F)(F)C(F)(F)C(F)(F)F [PFOS] was tested, and the IC50 was 4.56 µM.

Source: paper PMC5635798, “Alteration to Dopaminergic Synapses Following Exposure to Perfluorooctane Sulfonate (PFOS), in Vitro and in Vivo” (Medical Sciences, 2016)
